Assay results as given in patent US9766236B2, “Taste receptor internalization assay” (PepsiCo, Inc., priority 2013, dated 2017).
Residues, ends and D or L forms follow the SMILES beside them.

Assays:
T2R14 = molecular target: T1, T2R14 (Homo sapiens, UniProt Q9NYV8); test: High-content imaging ring assay for T2R14 internalization in NCI-H716 cells; assay type: cell-based; conditions: compounds used at 10 mM, 37° C., immunofluorescence
T1 construct: These cells express the bitter receptors T2R1, T2R3, T2R4, T2R5, T2R7, T2R8, T2R9, T2R10, T2R13, T2R14; endogenous in cells; host or cells: NCI-H716 (ATCC CCL-251)
T1 sequence (Q9NYV8 1-317): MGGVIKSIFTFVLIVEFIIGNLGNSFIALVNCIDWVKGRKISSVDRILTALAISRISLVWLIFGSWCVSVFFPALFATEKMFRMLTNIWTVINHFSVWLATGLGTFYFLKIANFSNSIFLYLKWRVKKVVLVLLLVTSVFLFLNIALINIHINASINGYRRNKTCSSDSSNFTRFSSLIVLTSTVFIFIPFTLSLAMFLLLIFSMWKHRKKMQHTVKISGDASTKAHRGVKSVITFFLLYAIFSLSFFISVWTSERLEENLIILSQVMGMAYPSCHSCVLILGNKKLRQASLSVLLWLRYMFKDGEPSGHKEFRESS
Source text: The internalization assay disclosed herein, also called a “ring assay,” detects localization of receptors using antibodies specific for the receptors. A first detectable label, specific for nucleic acid (e.g., DAPI, Hoechst 33342, DRAQ5, DRAQ7, DRAQ9), is used to label cell nuclei; this labeling provides information such as the number of cells in a field and differentiates between the nuclear (e.g., DAPI-positive) and cytoplasmic (e.g., DAPI-negative) compartments. Antibodies which specifically bind to a taste receptor are used in conjunction with secondary antibodies conjugated with a second detectable label which can be differentiated from the first detectable label (e.g., FITC, TRITC, Cy3, Cy5, Alexa 350, 488, 546, 555, 568, 594, 633, 647). Diffuse circle staining is observed in the absence of a stimulus (e.g., in the presence of buffer alone). In the presence of a stimulus, however, a “ring” of internalized receptors is visualized. In some embodiments, ring-positive cells are calculated by correlation coefficient for pixel values of the nuclear and receptor signals. The extent of internalization can be expressed as percentage (mean±SD) of cells showing a continuous ring staining from multiple (e.g., quadruplicate) data points. NCI-H716 cell were grown in RPMI1690 media supplemented with 10% fetal bovine serum. Cells were seeded at density of 20,000 cells/well on PDL-coated 384-well plates. […] Alexa 488-conjugated antibodies and Hoechst 33342 were from Life Technology. 20,000 cells in PBS+10% FBS were plated on clear-bottom, PDL-coated, black-wall 384-well plates suitable for HCA imaging. For […] studies compounds were added to the cells. Stock solutions of all compounds were diluted in dimethyl sulfoxide (DMSO) and used at 10 mM. Control groups of cells also received DMSO (0.1%) in medium. NCI-H716 cells were stimulated with RebA (Purecircle) at 10 mM for indicating time points at 37° C. The cells were then fixed and processed for indirect immunofluorescence with antibodies against bitter receptor […]. All images were acquired with a 20× objective using ImageXpress Micro automated microscope. Hoechst 33342 staining is pseudo-colored blue and antibody specific staining is pseudo-colored green. […] The extent of internalization is expressed as the percentage (means±S.D.) of cells showing a continuous “Ring” staining from quadruplicate data points. Recycling of […] receptor correlates with decreased number of “Ring”-positive cells. Statistical analyses and graphs were made with Tibco Spotfire or GraphPad Prism.

GLUT4 = molecular target: T2, GLUT4 (Homo sapiens, UniProt P14672); test: High-content imaging ring assay for GLUT4 internalization in NCI-H716 cells; assay type: cell-based; conditions: endogenous GLUT4, FIG. 4B
T2 construct: we tested internalization of endogenous GLUT4 in NCI-H716 cells; endogenous in cells; host or cells: NCI-H716 (ATCC CCL-251)
T2 sequence (P14672 1-509): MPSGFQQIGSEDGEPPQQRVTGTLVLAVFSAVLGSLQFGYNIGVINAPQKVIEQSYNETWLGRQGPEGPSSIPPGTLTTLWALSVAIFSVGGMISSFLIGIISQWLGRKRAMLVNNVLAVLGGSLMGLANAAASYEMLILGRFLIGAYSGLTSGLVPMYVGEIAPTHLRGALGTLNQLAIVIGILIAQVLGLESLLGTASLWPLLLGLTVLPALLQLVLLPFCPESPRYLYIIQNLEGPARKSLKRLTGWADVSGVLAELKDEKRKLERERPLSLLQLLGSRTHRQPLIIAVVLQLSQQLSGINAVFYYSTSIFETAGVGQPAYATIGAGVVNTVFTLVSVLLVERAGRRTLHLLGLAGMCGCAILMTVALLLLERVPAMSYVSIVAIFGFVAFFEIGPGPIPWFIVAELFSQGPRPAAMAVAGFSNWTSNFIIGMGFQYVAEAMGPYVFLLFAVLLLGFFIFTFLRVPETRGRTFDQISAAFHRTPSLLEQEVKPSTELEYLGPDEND
Source text: The internalization assay disclosed herein, also called a “ring assay,” detects localization of receptors using antibodies specific for the receptors. A first detectable label, specific for nucleic acid (e.g., DAPI, Hoechst 33342, DRAQ5, DRAQ7, DRAQ9), is used to label cell nuclei; this labeling provides information such as the number of cells in a field and differentiates between the nuclear (e.g., DAPI-positive) and cytoplasmic (e.g., DAPI-negative) compartments. Antibodies which specifically bind to a taste receptor are used in conjunction with secondary antibodies conjugated with a second detectable label which can be differentiated from the first detectable label (e.g., FITC, TRITC, Cy3, Cy5, Alexa 350, 488, 546, 555, 568, 594, 633, 647). Diffuse circle staining is observed in the absence of a stimulus (e.g., in the presence of buffer alone). In the presence of a stimulus, however, a “ring” of internalized receptors is visualized. In some embodiments, ring-positive cells are calculated by correlation coefficient for pixel values of the nuclear and receptor signals. The extent of internalization can be expressed as percentage (mean±SD) of cells showing a continuous ring staining from multiple (e.g., quadruplicate) data points.
To explore further the role of GLUT4 in signaling by artificial sweeteners, we tested internalization of endogenous GLUT4 in NCI-H716 cells.

SMILES	T2R14 internalization ("Ring"-positive cells) (T2R14; FIG. 2)	GLUT4 internalization ("Ring"-positive cells) (GLUT4)	T2R14 internalization ("Ring"-positive cells) (T2R14; FIG. 2, listed as Reb A)
C=C1C[C@@]23CC[C@H]4[C@@](C)(CCC[C@@]4(C)C(=O)O[C@@H]4O[C@H](CO)[C@@H](O)[C@H](O)[C@H]4O[C@@H]4O[C@H](CO)[C@@H](O)[C@H](O)[C@H]4O)[C@@H]2CC[C@]1(O[C@@H]1O[C@H](CO)[C@@H](O)[C@H](O[C@@H]2O[C@H](CO)[C@@H](O)[C@H](O)[C@H]2O)[C@H]1O[C@@H]1O[C@H](CO)[C@@H](O)[C@H](O)[C@H]1O)C3 [RebD]	internalization was not observed	–	–
COC(=O)[C@H](Cc1ccccc1)NC(=O)[C@@H](N)CC(=O)O [aspartame] (H-Asp-Phe-OMe)	–	GLUT4 internalization increased	–
O=C1NS(=O)(=O)c2ccccc21 [saccharine]	–	GLUT4 internalization increased	–
CC1=CC(=O)[N-]S(=O)(=O)O1.[K+] [Ace-K]	–	GLUT4 internalization increased	–
C=C1C[C@@]23CC[C@H]4[C@@](C)(CCC[C@@]4(C)C(=O)O[C@@H]4O[C@H](CO)[C@@H](O)[C@H](O)[C@H]4O)[C@@H]2CC[C@]1(O[C@@H]1O[C@H](CO)[C@@H](O)[C@H](O[C@@H]2O[C@H](CO)[C@@H](O)[C@H](O)[C@H]2O)[C@H]1O[C@@H]1O[C@H](CO)[C@@H](O)[C@H](O)[C@H]1O)C3 [RebA]	T2R14 internalization increases	–	induces T2R14 internalization
C=C1C[C@@]23CC[C@H]4[C@@](C)(CCC[C@@]4(C)C(=O)O[C@@H]4O[C@H](CO)[C@@H](O)[C@H](O)[C@H]4O)[C@@H]2CC[C@]1(O[C@@H]1O[C@H](CO)[C@@H](O)[C@H](O[C@@H]2O[C@H](CO)[C@@H](O)[C@H](O)[C@H]2O)[C@H]1O[C@@H]1O[C@@H](C)[C@H](O)[C@@H](O)[C@H]1O)C3 [RebC]	T2R14 internalization increases	–	–
